Reference: patent US5231031A, “Method for assessing risk of diabetes-associated pathologic conditions and efficacy of therapies for such conditions” (priority 1990, dated 1993)

Legend:
[1] = compared with F3P; cited from earlier work
[2] = pKa of the phosphorylated metabolites (Table 1); assay type: physicochemical
Text: While the toxic potential and precise structures of compounds a and b are not known, they have many characteristics in common with S3P and F3P, such as unique chemical shifts, large ^1 H-^31 P spin-spin coupling constants and unusually low pKa' values (see Table 1). In these properties, Compounds a and b differ substantially from other phosphomonoesters and thus appear to belong to the same class of compounds as S3P and F3P. […] There is a good correlation between these elevated concentrations and the presence of clinical symptoms of diabetic complications such as retinopathy, peripheral neuropathy and peripheral vascular disease. This correlation is especially striking when one compares the sum of the concentrations of compounds a and b with the concentration of S3P ([a]+[b]/[S3P]).
Compound (at pH 7.5) (Hz) pKa

[3] = tested on: erythrocytes; experiment: Effect of fructose-3-phosphate on red cell viability, 31P NMR; assay type: cell-based, human
Protocol: FIGS. 3A-C are ^31 P NMR spectra showing the effect of fructose-3-phosphate on red cell viability.
Spectra were collected in 250-5000 scans using a 60° pulse and a 1.5 sec. repetition rate.
FIGS. 3A-C illustrates the results of an experiment which confirms that this indeed is the case for erythrocytes. […] This phenomenon indicates very strongly that F3P is indeed a toxic agent which, at sufficiently high concentration, leads to an irreversible decline in cell function and ultimately to cell death.

[4] = Glycosylating activity and lability
Text: A difficult problem encountered in the medical treatment of diabetes has been the inability to identify those diabetic patients who are at risk of experiencing some diabetes-associated pathologic condition, so as to effect timely intervention. […] Kato, M., Hayase, F., Shin, D. B., Oimomi, M. and Baba, S. (1989), The Maillard Reaction in Aging, Diabetes and Nutrition, J. W. Baynes and V. M. Monnier, eds, at 69-84 (Liss, New York, 1989).

[5] = erythrocytes loaded with F3P, then 12 hrs. in fructose-free medium

SMILES | glycosylating and cross-linking potency [1] | pKa [2] | toxicity to erythrocytes ([3]; at sufficiently high concentration) | concentration of ATP [3, 5] | hemolysis of the cells [3, 5] | glycosylating potency [4] | lability ([4]; especially in the presence of amines, breaks down to 3-deoxyglucosone)
O=CC(=O)C[C@H](O)[C@H](O)CO [Compound 3dG, 3-deoxyglucosone] | even more potent Maillard glycosylating and cross-linking agent | – | – | – | – | – | –
O=C(CO)[C@@H](OP(=O)(O)O)[C@H](O)[C@H](O)CO [Compound F3P, fructose-3-phosphate] | – | 5.6 | toxic agent | dramatic decrease | extensive hemolysis | relatively potent glycosylating agent | quite labile
O=P(O)(O)O[C@@H]([C@H](O)[C@H](O)CO)[C@@H](O)CO [Compound S3P, sorbitol-3-phosphate] | – | 5.4 | – | – | – | – | –
